Each compound was assayed against T1, Adenosine deaminase (Bos taurus, UniProt P56658) (assay: Binding affinity towards calf spleen adenosine deaminase was determined).
T1 sequence (P56658 whole entry): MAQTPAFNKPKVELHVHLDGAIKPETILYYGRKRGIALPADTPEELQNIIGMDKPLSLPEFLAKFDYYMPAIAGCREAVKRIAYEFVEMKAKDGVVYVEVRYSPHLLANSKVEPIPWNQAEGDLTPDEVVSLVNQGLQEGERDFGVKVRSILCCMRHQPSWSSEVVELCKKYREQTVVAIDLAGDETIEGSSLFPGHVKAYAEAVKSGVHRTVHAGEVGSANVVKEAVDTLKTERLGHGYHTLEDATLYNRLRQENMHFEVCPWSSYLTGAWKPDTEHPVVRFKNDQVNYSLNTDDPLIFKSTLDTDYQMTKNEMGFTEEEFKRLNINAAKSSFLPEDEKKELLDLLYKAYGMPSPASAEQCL

Going from `COCCOC1c2c(ncn2Cc2ccc(OC)cc2)N=CN(C)N1C` (stereo not drawn) to `CCCOC1c2c(ncn2Cc2ccc(OC)cc2)N=CN(C)N1C` (stereo not drawn), the Ki falls from 23 µM to 12 µM (1.9-fold). The second binds more tightly here.

`COc1ccc(Cn2cnc3c2C(OC)N(C)N(C)C=N3)cc1` (stereo not drawn) and `CCOC1c2c(ncn2Cc2ccc(OC)cc2)N=CN(C)N1C` (stereo not drawn) are within 1.5-fold of each other in Ki: 24 µM for the first, 20 µM for the second.

First: COc1ccc(Cn2cnc3c2C(OC(C)C)N(C)N(C)C=N3)cc1 (stereo not drawn)
Second: CCCCOC1c2c(ncn2Cc2ccc(OC)cc2)N=CN(C)N1C (stereo not drawn)
The Ki of the first is 2-fold higher: 30 µM for the first, 15 µM for the second. The second binds more tightly here.

`COc1ccc(COC2c3c(ncn3Cc3ccc(OC)cc3)N=CN(C)N2C)cc1` (stereo not drawn) and `COc1ccc(Cn2cnc3c2C(OCc2cccc(C)c2)N(C)N(C)C=N3)cc1` (stereo not drawn) are within 1.5-fold of each other in Ki: 77 µM for the first, 93 µM for the second.

— ChEMBL document CHEMBL1148406, “Inhibition of adenosine deaminase by novel 5:7 fused heterocycles containing the imidazo[4,5-e][1,2,4]triazepine ring system: a structure-activity relationship study” (J Med Chem, 2004)
